Our source for the IC50 values is ChEMBL document CHEMBL5729768, “Azalactam compounds as HPK1 inhibitors” (2023).

Usually IC50 stands for the concentration that gives 50% inhibition.

In assay [1] the target is Ribosomal protein S6 kinase alpha-2 (Homo sapiens, UniProt Q15349).
Assay [2] addresses T1, Serine/threonine-protein kinase D2 (Homo sapiens, UniProt Q9BZL6).
T1 sequence (Q9BZL6 whole entry): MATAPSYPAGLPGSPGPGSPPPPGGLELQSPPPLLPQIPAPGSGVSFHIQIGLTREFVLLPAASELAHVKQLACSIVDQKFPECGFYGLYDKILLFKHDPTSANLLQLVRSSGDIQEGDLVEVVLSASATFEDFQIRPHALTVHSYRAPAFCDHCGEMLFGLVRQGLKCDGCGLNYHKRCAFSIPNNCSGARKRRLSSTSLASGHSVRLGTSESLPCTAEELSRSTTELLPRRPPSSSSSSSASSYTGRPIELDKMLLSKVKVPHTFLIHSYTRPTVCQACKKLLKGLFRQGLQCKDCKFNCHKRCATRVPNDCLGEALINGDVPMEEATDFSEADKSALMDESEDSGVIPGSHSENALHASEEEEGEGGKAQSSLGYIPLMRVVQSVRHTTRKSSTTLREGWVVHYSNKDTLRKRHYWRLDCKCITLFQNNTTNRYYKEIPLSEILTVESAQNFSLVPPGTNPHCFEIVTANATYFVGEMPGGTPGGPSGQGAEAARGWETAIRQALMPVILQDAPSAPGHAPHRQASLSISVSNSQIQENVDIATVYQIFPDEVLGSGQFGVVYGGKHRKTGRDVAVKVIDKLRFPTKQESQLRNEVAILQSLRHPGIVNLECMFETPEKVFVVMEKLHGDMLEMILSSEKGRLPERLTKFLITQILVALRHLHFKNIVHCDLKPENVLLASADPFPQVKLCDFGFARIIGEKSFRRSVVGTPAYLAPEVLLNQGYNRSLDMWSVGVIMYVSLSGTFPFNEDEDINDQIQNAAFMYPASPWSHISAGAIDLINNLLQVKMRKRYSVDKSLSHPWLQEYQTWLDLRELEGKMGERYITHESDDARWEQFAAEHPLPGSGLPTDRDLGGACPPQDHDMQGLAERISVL

The structures appear in SMILES notation.

Chain of Ribosomal protein S6 kinase alpha-2 (Q15349 whole entry): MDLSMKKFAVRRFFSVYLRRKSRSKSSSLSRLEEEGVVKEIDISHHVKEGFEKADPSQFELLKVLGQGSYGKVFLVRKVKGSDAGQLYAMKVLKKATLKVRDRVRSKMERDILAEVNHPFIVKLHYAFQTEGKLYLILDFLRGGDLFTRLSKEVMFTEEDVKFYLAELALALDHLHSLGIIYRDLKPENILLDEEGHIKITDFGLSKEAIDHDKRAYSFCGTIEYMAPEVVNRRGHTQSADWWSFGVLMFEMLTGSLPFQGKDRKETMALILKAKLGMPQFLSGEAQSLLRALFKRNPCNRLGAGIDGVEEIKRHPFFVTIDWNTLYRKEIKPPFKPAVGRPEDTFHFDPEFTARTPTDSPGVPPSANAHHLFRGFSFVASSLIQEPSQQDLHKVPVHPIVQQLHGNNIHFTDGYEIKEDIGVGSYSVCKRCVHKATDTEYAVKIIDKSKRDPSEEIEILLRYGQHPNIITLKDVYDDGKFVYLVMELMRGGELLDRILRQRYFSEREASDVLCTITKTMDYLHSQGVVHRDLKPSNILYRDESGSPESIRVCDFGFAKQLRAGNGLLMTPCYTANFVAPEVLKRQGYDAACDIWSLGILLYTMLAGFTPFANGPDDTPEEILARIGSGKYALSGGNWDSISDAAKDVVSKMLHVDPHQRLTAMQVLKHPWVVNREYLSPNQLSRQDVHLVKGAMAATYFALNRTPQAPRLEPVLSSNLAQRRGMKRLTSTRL

With `CC[C@@H](N)c1nc(N(C)C(C)C)cc2c1CN(c1cccc(-c3nnc4n3[C@@H](C)CC4)n1)C2=O`, the IC50 stood at 53.5 nM in assay [1] and 251 nM in assay [2].

Turning to `COC[C@@H](N)c1nc(C2(C)CC2)cc2c1CN(c1cccc(-c3nnc4n3[C@@H](C)CC4)n1)C2=O`, the 50% inhibitory concentration (IC50) in assay [1] worked out at 48.6 nM; in assay [2], 942 nM.
